# Test results: US10517889B2, “Modulators of SMAD7 expression” (Ionis Pharmaceuticals, Inc., priority 2017, dated 2019)
# “And” between values parts separate entries of the source, which are not always exact repeats. Identical values can stand only once. Strand notation (5' to 3'): a small letter for the sugar, then the base; units joined by * are phosphorothioate-linked, units joined directly phosphodiester-linked; [ ] holds rarer units or linkages, { } end groups; capitals alone tell only the bases. k = constrained ethyl (cEt); [5mC] = 5-methylcytosine; d = 2'-deoxy (DNA)
# Key:
# [1] = system: human SMAD7 mRNA; assay: Dose-dependent inhibition of human SMAD7 mRNA expression in Hep3B cells (Example 3, Study 1 and 2); assay type: cell-based; conditions: electroporation; for % inhibition of SMAD7 mRNA expression: approximately 16 hours; for IC50: Study 2 (740-20000 nM)
# Method in brief: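 Hep3B cells, 20,000 per well, electroporated with antisense oligonucleotide at 0.31, 1.25, 5.00 or 20.00 μM (first series) or 0.74, 2.22, 6.67 or 20.00 μM (second series). After ~16 h, SMAD7 mRNA measured by RT-qPCR (RTS5062), normalised to RIBOGREEN total RNA. Percent inhibition vs untreated cells; IC50 derived.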
# [2] = system: human SMAD7 mRNA; assay: Antisense inhibition of human SMAD7 mRNA expression in Hep3B cells by 3-10-3 cEt gapmers, 10,000 nM, electroporation (Example 2); assay type: cell-based; conditions: approximately 24 hours; for % inhibition of SMAD7 mRNA expression: electroporation, 10,000 nM antisense oligonucleotide, RTS5062, relative to untreated control cells
# Method in brief: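 Hep3B cells (20,000 per well) were electroporated with 10,000 nM 16-mer 3-10-3 cEt gapmer (phosphorothioate, 5-methylcytosine). After about 24 h, SMAD7 mRNA was quantified by qRT-PCR with primer probe set RTS5062, normalised to RIBOGREEN total RNA, and expressed as percent inhibition versus untreated cells.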
# [3] = 740 nM, Study 2, relative to untreated control cells
# [4] = Hep3B cells, electroporation with 10,000 nM antisense oligonucleotide, RTS5062, percent inhibition of SMAD7 mRNA relative to untreated control cells
# [5] = SMAD7 mRNA, Hep3B cells, 10,000 nM antisense oligonucleotide, electroporation, primer probe set RTS5062, relative to untreated control cells
Substance,"% inhibition of SMAD7 mRNA expression [1, 3]","% inhibition of SMAD7 mRNA expression ([1]; 2220 nM, Study 2)","% inhibition of SMAD7 mRNA expression ([1]; 6670.0 nM, Study 2)","% inhibition of SMAD7 mRNA expression ([1]; 20000.0 nM, Study 2)",IC50 [1],% inhibition of SMAD7 mRNA expression ([2]; Hep3B cells) [%],"% Inhibition [2, 4] [%]","% Inhibition [2, 5] [%]"
799534 (kG*kA*kG*dA*dA*dT*dG*dA*dA*dG*dT*d[5mC]*d[5mC]*kA*kG*kA; antisense) [compound 799534],16%,60%,51%,86%,1 µM,68,,
799540 (kA*kG*k[5mC]*dT*dG*dA*dA*dG*d[5mC]*d[5mC]*d[5mC]*d[5mC]*d[5mC]*k[5mC]*kA*kA; antisense) [compound 799540],41%,60%,63%,73%,5 µM,76,,
799543 (kT*k[5mC]*kA*dA*dA*dT*dG*d[5mC]*dA*dT*dG*dA*dG*kT*kT*kA; antisense) [compound 799543],13%,26%,61%,75%,5 µM,65,,
799544 (kT*kT*k[5mC]*dA*dA*d[5mC]*dA*dA*dG*dT*dT*d[5mC]*d[5mC]*k[5mC]*kT*kA; antisense) [compound 799544],19%,38%,54%,73%,4 µM,,72,
799556 (kA*k[5mC]*kA*dA*d[5mC]*dA*dA*dT*dG*d[5mC]*dT*d[5mC]*dT*kG*kG*k[5mC]; antisense) [compound 799556],0%,50%,71%,71%,2 µM,68,,
799563 (kA*kA*kA*dA*d[5mC]*dA*dA*dA*d[5mC]*dA*dA*dG*dG*kG*kT*k[5mC]; antisense) [compound 799563],32%,57%,85%,88%,5 µM,68,,
799564 (k[5mC]*kA*kG*dA*dT*dA*dA*d[5mC]*dA*dG*dA*dG*dT*kA*kT*kA; antisense) [compound 799564],13%,41%,60%,73%,3 µM,,70,
799565 (kA*kG*kT*dA*dA*dA*d[5mC]*dA*dA*dT*dA*d[5mC]*d[5mC]*k[5mC]*kT*k[5mC]; antisense) [compound 799565],23%,49%,67%,86%,11 µM,,79,
799566 (kG*kA*kG*dT*dA*dA*dA*d[5mC]*dA*dA*dT*dA*d[5mC]*k[5mC]*k[5mC]*kT; antisense) [compound 799566],0% and 10%,32% and 64%,63% and 82%,,2 µM and 1 µM,,74,89
799568 (k[5mC]*kA*kT*dT*dA*dG*dA*dA*dG*d[5mC]*dT*dT*dT*kG*kA*kG; antisense) [compound 799568],49%,58%,84%,92%,6 µM,,62,
799572 (kA*k[5mC]*k[5mC]*dA*dT*d[5mC]*dT*dA*dA*d[5mC]*dA*dA*d[5mC]*kA*kT*k[5mC]; antisense) [compound 799572],0%,35%,62%,66%,1 µM,,79,55
799577 (kT*kT*k[5mC]*d[5mC]*dG*dA*dA*dA*dG*dG*dA*d[5mC]*d[5mC]*k[5mC]*kT*kT; antisense) [compound 799577],35%,64%,75%,86%,2 µM,55,,
799583 (kA*kA*kG*dA*d[5mC]*dA*dA*dA*d[5mC]*d[5mC]*dT*dT*d[5mC]*k[5mC]*kG*kA; antisense) [compound 799583],26% and 31%,61% and 46%,73% and 59%,65% and 83%,3 µM,,74,74
799589 (kA*kA*kT*dA*dT*d[5mC]*dT*dG*dT*dG*dT*d[5mC]*dT*kA*k[5mC]*kA; antisense) [compound 799589],15%,58%,77%,82%,4 µM,,65,
799596 (kA*k[5mC]*kT*d[5mC]*dT*dG*dA*dA*d[5mC]*dG*dG*dA*dA*kA*kG*kA; antisense) [compound 799596],14%,35%,66%,83%,5 µM,49,,
799605 (k[5mC]*k[5mC]*kA*dA*dT*dA*dA*dA*dG*dT*dT*d[5mC]*d[5mC]*k[5mC]*kT*kT; antisense) [compound 799605],18%,46%,51%,75%,8 µM,,56,
799607 (k[5mC]*k[5mC]*kA*dT*dT*dT*dA*d[5mC]*dA*dA*dA*dA*d[5mC]*kT*k[5mC]*kT; antisense) [compound 799607],5%,12%,46%,76%,2 µM,,71,
799608 (kA*k[5mC]*kG*dA*dT*d[5mC]*dA*dA*d[5mC]*dT*dT*d[5mC]*dT*kT*kG*kA; antisense) [compound 799608],35%,56%,70%,76%,3 µM,,70,
799624 (kT*kG*kA*dA*dA*dG*dT*dA*d[5mC]*dA*dA*dT*d[5mC]*kT*k[5mC]*k[5mC]; antisense) [compound 799624],2%,50%,77%,89%,6 µM,,58,
